Experiments:
[1] = tested on: B16; test: Optimum dose against solid neoplasm B-16 melanoma; format: functional, Mus musculus
[2] = tested on: L1210; test: Optimum dose against murine L1210 leukemia; format: functional, Mus musculus
[3] = tested on: P388; test: Optimum dose against P388 murine tumor cell line; format: functional, Mus musculus
[4] = tested on: Colon 26 (Mus musculus); test: Optimum dose against solid neoplasm colon 26
[5] = tested on: CAPAN-1; test: Cytotoxic activity against Capan-1 pancreatic carcinoma tumor cell lines.; format: functional, cell-based; conditions: Homo sapiens
[6] = tested on: H322; test: Cytotoxic activity against H-322 lung carcinoma tumor cell lines.; format: functional, cell-based; conditions: Homo sapiens, NCI-H322
[7] = tested on: HMEC; test: Cytotoxic activity against HMEC human mammary epithelial normal cell lines.; format: functional, cell-based
[8] = tested on: HNBM; test: Cytotoxic activity against HNBM bone marrow normal cell lines.; format: functional, cell-based; conditions: Homo sapiens
[9] = tested on: HT-29; test: Cytotoxic activity against HT-29 Colon carcinoma tumor cell lines.; format: functional, cell-based; conditions: Homo sapiens
[10] = tested on: HL-60; test: Cytotoxic activity against HL-60 promyelocytic leukemia tumor cell lines.; format: functional, cell-based; conditions: Homo sapiens
[11] = tested on: M14; test: Cytotoxic activity against M-14 melanoma tumor cell lines.; format: functional, cell-based; conditions: Homo sapiens
[12] = tested on: M21; test: Cytotoxic activity against M-21 melanoma tumor cell lines.; format: functional, cell-based; conditions: Homo sapiens
[13] = tested on: L1210; test: Cytotoxic activity against L-1210 mouse leukemia tumor cell lines.; format: functional, cell-based
[14] = tested on: MCF7; test: Cytotoxic activity against MCF-7 breast carcinoma tumor cell lines.; format: functional, cell-based; conditions: Homo sapiens
[15] = tested on: OVCAR-3; test: Cytotoxic activity against Ovcar-3 ovarian carcinoma tumor cell lines.; format: functional, cell-based; conditions: Homo sapiens
[16] = tested on: OVCAR-4; test: Cytotoxic activity against Ovcar-4 ovarian carcinoma tumor cell lines.; format: functional, cell-based; conditions: Homo sapiens
[17] = tested on: RPMI-8226; test: Cytotoxic activity against RPMI-8226 myeloma tumor cell lines.; format: functional, cell-based; conditions: Homo sapiens
[18] = tested on: SK-MEL-28; test: Cytotoxic activity against SK-Mel-28 melanoma tumor cell lines.; format: functional, cell-based; conditions: Homo sapiens
[19] = tested on: U-251; test: Cytotoxic activity against U-251 MG glioblastoma tumor cell lines.; format: functional, cell-based; conditions: Homo sapiens
[20] = tested on: TCAF; test: Cytotoxic activity against TCAF T-cell leukemia tumor cell lines.; format: functional, cell-based; conditions: Homo sapiens
[21] = tested on: TCAF-DAX; test: Cytotoxic activity against TCAF-DAX T-cell leukemia tumor cell lines.; format: functional, cell-based; conditions: Homo sapiens
[22] = tested on: UCLA P-3; test: Cytotoxic activity against UCLA P-3 lung carcinoma tumor cell lines.; format: functional, cell-based; conditions: Homo sapiens
[23] = tested on: P388; test: Cytotoxic activity against P-388 mouse leukemia cell lines.; format: functional, cell-based
[24] = tested on: U-87 MG; test: Cytotoxic activity against […] astrocytoma tumor cell lines.; format: functional, cell-based, U-87MG ATCC; conditions: Homo sapiens
[25] = tested on: NHDF; test: Cytotoxic activity against NHDF normal human dermal fibroblast cell lines.; format: functional, cell-based
[26] = Half life at 55 degree Centigrade; format: ADME
[27] = Half life at 110 degree Centigrade; format: ADME
[28] = Half life at 37 degree Centigrade; format: ADME

With `COC(=O)NC1=C2/C(=C/CSSSC)[C@](O)(C#C/C=C\C#CC2OC2OC(C)C(NOC3CC(O)C(SC(=O)c4c(C)c(Br)c(OC5OC(C)C(O)C(OC)C5O)c(OC)c4OC)C(C)O3)C(O)C2OC2CC(OC)C(NC(C)C)CO2)CC1=O` (stereo partly drawn) [CALICHEAMICIN BETA1 BR] the OD [1] was 5 µg/kg, the OD [2] was 5 µg/kg and the OD [3] was 5 µg/kg. It also gave an OD [4] of 5 µg/kg.

Molecule `O=C(OCCS(=O)(=O)c1ccccc1)N1c2ccc(OCCO)cc2[C@@]23O[C@]24CCC[C@H]3C#C/C=C\C#C[C@H]14` has an IC50 [5] of 3.1 nM, an IC50 [6] of 390 nM and an IC50 [7] of 6300 nM. The IC50 [8] was 50000 nM, the IC50 [9] was 1600 nM and the IC50 [10] was 0.036 nM. The IC50 [11] was 1600 nM, the IC50 [12] was 1600 nM and the IC50 [13] was 1.3 nM. The IC50 [14] was 780 nM, the IC50 [15] was 780 nM and the IC50 [16] was 780 nM. It also gave an IC50 [17] of 7.7 nM, an IC50 [18] of 3100 nM and an IC50 [19] of 390 nM. For the same molecule, the IC50 [20] was 1.1 nM, the IC50 [21] was 1.7 nM and the IC50 [22] was 98 nM. For the same molecule, the IC50 [23] was 4.6 nM, the IC50 [24] was 780 nM and the IC50 [25] was 5000 nM.

For `COC(=O)NC1=C2/C(=C/CSSSC)[C@](O)(C#C/C=C\C#CC2OC2OC(C)C(NOC3CC(O)C(SC(=O)c4c(C)c(I)c(OC5OC(C)C(O)C(OC)C5O)c(OC)c4OC)C(C)O3)C(O)C2OC2CC(OC)C(NC(C)C)CO2)CC1=O` (stereo partly drawn) [CALICHEAMICIN BETA1 I], the OD [1] was 5 µg/kg, the OD [2] was 5 µg/kg and the OD [3] was 5 µg/kg. The OD [4] was 5 µg/kg.

`COC(=O)NC1=C2/C(=C/CSSSC)[C@](O)(C#C/C=C\C#CC2OC2OC(C)C(NOC3CC(O)C(SC(=O)c4c(C)c(I)c(OC5OC(C)C(O)C(OC)C5O)c(OC)c4OC)C(C)O3)C(O)C2O)CC1=O` (stereo partly drawn) [CALICHEAMICIN ALPHA3 I] gave an OD [1] of 5 µg/kg, an OD [2] of 5 µg/kg and an OD [3] of 5 µg/kg. The OD [4] was 5 µg/kg.

`CC1=C(C)C(=O)C2=C(C#CCCCC(=O)C#C2)C1=O` showed a half-life [26] of 0.533 h.

`Cc1c(C)c(C(=O)OC(C)(C)C)c2c(c1C(=O)OC(C)(C)C)C#CCCCC(O)C#C2` (stereo not drawn) showed a half-life [27] of 74 h.

In the case of `CCNC1COC(OC2C(OC3C#C/C=C\C#C[C@]4(O)CC(=O)C(NC(=O)OC)=C3/C4=C/CSSSC)OC(C)C(NOC3CC(O)C(SC(=O)c4c(C)c(I)c(O)c(OC)c4OC)C(C)O3)C2O)CC1OC` (stereo partly drawn) [CALICHEAMICIN ALPHA1 I], the OD [1] is reported as 5 µg/kg, the OD [2] is reported as 5 µg/kg and the OD [3] is reported as 5 µg/kg. The OD [4] was 5 µg/kg.

With `CC1=C(C)C(=O)C2=C(C#CCCCC(O)C#C2)C1=O` (stereo not drawn) the half-life [26] was 2.6 h.

With `CNC1C(O[C@H]2C#C/C=C\C#C[C@]3(O)CC(=O)C(NC(=O)OC)[C@]24SCCC=C34)OC(C)C(O)C1O` (stereo partly drawn) the T1/2 [28] was 4.5 s.

With `CCNC1COC(OC2C(OC3C#C/C=C\C#C[C@]4(O)CC(=O)C(NC(=O)OC)=C3/C4=C/CSSSC)OC(C)C(NOC3CC(O)C(SC(=O)c4c(C)c(Br)c(OC5OC(C)C(O)C(OC)C5O)c(OC)c4OC)C(C)O3)C2O)CC1OC` (stereo partly drawn) [CALICHEAMICIN GAMMA1 BR] the OD [1] was 5 µg/kg, the OD [2] was 5 µg/kg and the OD [3] was 5 µg/kg. It also gave an OD [4] of 5 µg/kg.

`CNC1COC(OC2C(OC3C#C/C=C\C#C[C@]4(O)CC(=O)C(NC(=O)OC)=C3/C4=C/CSSSC)OC(C)C(NOC3CC(O)C(SC(=O)c4c(C)c(I)c(OC5OC(C)C(O)C(OC)C5O)c(OC)c4OC)C(C)O3)C2O)CC1OC` (stereo partly drawn) [CALICHEAMICIN DELTA1 I] gave an OD [1] of 5 µg/kg, an OD [2] of 5 µg/kg and an OD [3] of 5 µg/kg. It also gave an OD [4] of 5 µg/kg.

`CCN[C@H]1CO[C@@H](O[C@H]2[C@H](O[C@H]3C#C/C=C/C#C[C@@]4(O)CC(=O)C(NC(=O)OC)=C3/C4=C\CSSSC)O[C@H](C)[C@@H](NO[C@H]3C[C@H](O)[C@H](SC(=O)c4c(C)c(I)c(O[C@@H]5O[C@@H](C)[C@H](O)[C@@H](OC)[C@H]5O)c(OC)c4OC)[C@@H](C)O3)[C@@H]2O)C[C@@H]1OC` [CALICHEAMICIN GAMMA1 I] showed an OD [1] of 5 µg/kg, an OD [2] of 5 µg/kg and an OD [3] of 5 µg/kg. For the same molecule, the OD [4] was 5 µg/kg.

Reference: ChEMBL document CHEMBL1129320, “The enediyne antibiotics” (J Med Chem, 1996)
